45 compounds from patent US9399032B2, “Methods and compositions for treating degenerative and ischemic disorders” (The General Hospital Corporation, priority 2009, dated 2016) can be followed below.

Where a name gives a salt, the structure may show the parent alone.

The first test deals with MCH58 fibroblasts. As to the kind of experiment: Glucose versus galactose cell growth screen (metabolic state-dependent lethality). As to conditions: approximately 10 μM compound, 72 hours; log10 fold change of normalized cell number in glucose versus galactose.
Method: The assay included monitoring or measuring cell growth in cells that are grown in glucose (which allows the cell to utilize glycolysis) or in galactose (which switches the cell energy production from glycolysis to the OXPHOS pathway).
The high glucose medium was replaced with 10 mM glucose or 10 mM galactose wherever indicated. All media contained 1 mM pyruvate and 4 mM glutamine.
Cell number quantification high throughput assays were performed as follows. […] 24 hours later, cells were washed twice in PBS and media was replaced with either 10 mM glucose or 10 mM galactose containing media.
Approximately 100 nL of each compound was pin-transferred in duplicate into the plates with a steel pin array using the CyBi-Well robot (CyBio). […] Compound-treated plates were incubated at 37° C. for 72 hours. […] Wells were then washed once and stored in PBS. Cell culture plates were stored at 4° C. until time of imaging, which was at most 24 hours after fixation.
Imaging was performed by Arrayscan VTi automated microscope (ThermoFisher Scientific) with the use of an automated plate stacker. Appropriate filter sets for the detection of the Hoescht fluorescent signal were used. Four non-overlapping images at 5× magnification (NA 0.25) were acquired for a field of view of 1.3 mm×1.3 mm per image. The plate stacker and microscope including an auto-focusing algorithm were controlled entirely with ArrayScan software. Images were captured and stored simultaneously in at least two independent locations. Image analysis was performed using the freely available open-source software package CellProfiler. […] Images were analyzed individually by first identifying nuclei using the Hoescht staining signal.
Total number of nuclei per field were recorded, and the four images per well were totaled to give the cell count per well. Computation was performed using a UNIX computer cluster. Appropriate masking of each nucleus was ensured by visually monitoring each batch at its onset and intermittently throughout the run.
The fibroblast cells were seeded on Day 0 and incubated for 24 hours in standard culture media.
Normalized cell counts were computed separately for each 96-well plate by dividing the cell count of each well with the trimmed mean (the average after discarding the largest and smallest value) of the cell counts for the 16 DMSO treated wells. […] The remaining replicate measurements were averaged, and fold changes were computed as the ratio between the average normalized counts for the glucose and galactose screens. To evaluate statistical significance, Z-scores were computed for each well against the DMSO (null) distribution and averaged Z-scores across replicates. Wells with average Z-score greater than 2.5 were considered significant.
By jointly analyzing the glucose and galactose results, a glucose-galactose cell growth ratio can be calculated (Sglu/gal) that represents the log10 fold-change in cell growth in a glucose rich media divided by the log10 fold-change in cell growth in a galactose rich media. […] Low Sglu/gal scores (e.g., ranging between approximately (−) 0.1 to (−) 0.7) may arise from inhibition of glycolysis or from inhibition of proliferation, since cells grown in glucose-rich media divide more rapidly.
For the compound 15-norcaryophyllen-3-one, the “Sglu/gal (log10 fold change) Score” value is recorded as −0.29.
Still for that read-out and setting: the same measure for `CC1(C)C(=O)C=C[C@]2(C)[C@H]3CC[C@@]4(C)[C@H](c5ccoc5)OC(=O)[C@H]5O[C@]54[C@]3(C)C=C[C@@H]12` [7-desacetoxy-6,7-dehydrogedunin]: −0.22.
The same measure, in the same setting: the same measure for `CCCCC(CC)CNC(=N)NC(=N)NCCCCCCNC(=N)NC(=N)NCC(CC)CCCC` (stereo not shown) [Alexidine dihydrochloride]: 0.44; for `COc1cc2c(cc1OC)[C@@H]1C(=O)c3c(O)cc4c(c3O[C@@H]1CO2)C=CC(C)(C)O4` [Alpha-toxicarol]: 0.91; for `C[C@@H]1CC[C@H]2[C@@H](C)C(=O)O[C@@H]3O[C@@]4(C)CC[C@@H]1[C@]32OO4` [Artemisinin]: 0.17.
Still for that read-out and setting: the same measure for `O=C1O[C@H]([C@@H](O)CO)C(O)=C1O` [Ascorbic acid]: 0.15; for `COc1cc2c(cc1OC)[C@@H]1C(=O)c3ccc4c(c3O[C@@H]1CO2)CC(C(C)C)O4` (stereo partly drawn) [Beta-dihydrorotenone]: 0.85; for `COc1cc2c(cc1OC)C1C(=O)c3c(cc4c(c3O)C=CC(C)(C)O4)OC1CO2` (stereo not drawn) [Beta-toxicarol]: 0.82.
For `COc1ccccc1OCCNCC(O)COc1cccc2[nH]c3ccccc3c12` (stereo not shown) [Carvedilol], the “Sglu/gal (log10 fold change) Score” value was determined as 0.15.
Same read-out and setting: the same measure for `[H]/N=C(\N/C(=N/[H])NCCCCCCNC(=N)NC(=N)Nc1ccc(Cl)cc1)Nc1ccc(Cl)cc1` [Chlorhexidine]: 0.16.
Still for that read-out and setting: under `CN1CCC[C@@H]1CCO[C@](C)(c1ccccc1)c1ccc(Cl)cc1` [Clemastine fumarate] stands 0.19; under `CCN(CC)CCOc1ccc(C(=C(Cl)c2ccccc2)c2ccccc2)cc1` [Clomiphene citrate], 0.21.
Same read-out and setting: under `COc1cc2c(c(OC)c1OC)-c1ccc(OC)c(=O)cc1[C@@H](NC(C)=O)CC2` [Colchicine] stands −0.26.
Turning to `CN(C)CCC=C1c2ccccc2C=Cc2ccccc21` [Cyclobenzaprine hydrochloride], the “Sglu/gal (log10 fold change) Score” value is given as 0.13.
Still for that read-out and setting: the same measure for `Cc1cc(N)c2ccccc2[n+]1CCCCCCCCCC[n+]1c(C)cc(N)c2ccccc21` [Dequalinium dichloride]: 0.42.
Same read-out and setting: under `CCN[C@H]1C[C@H](C)S(=O)(=O)c2sc(S(N)(=O)=O)cc21` [Dorzolamide hydrochloride] stands 0.17; under `C#C[C@]1(OC(C)=O)CC[C@H]2[C@@H]3CCC4=C[C@@H](OC(C)=O)CC[C@@H]4[C@H]3CC[C@@]21C` [Ethynodiol diacetate], 0.15; under `CC(C)n1c(/C=C/C(O)CC(O)CC(=O)O)c(-c2ccc(F)cc2)c2ccccc21` (stereo not shown) [Fluvastatin sodium salt], 0.16.
Same read-out and setting: under `COc1cc2c(cc1OC)[C@@H]1C(=O)c3ccc4oc(C(C)C)cc4c3O[C@@H]1CO2` [Isorotenone] stands 0.71.
For the compound `OC(c1cc(C(F)(F)F)nc2c(C(F)(F)F)cccc12)C1CCCCN1` (stereo not shown) [Mefloquine], the “Sglu/gal (log10 fold change) Score” value came to 0.20.
Still for that read-out and setting: under `Cc1cc(C(C)(C)CC(C)(C)C)ccc1OCCOCC[N+](C)(C)Cc1ccccc1.[Cl-]` [Methyl benzethonium chloride] stands 0.80.
Turning to `COc1c(-c2coc3cc4c(cc3c2=O)CC(O)C(C)(C)O4)ccc2c1C=CC(C)(C)O2` (stereo not shown) [Mundulone], the “Sglu/gal (log10 fold change) Score” value worked out at 0.50.
As for `CN(C/C=C/c1ccccc1)Cc1cccc2ccccc12` [Naftifine hydrochloride], the “Sglu/gal (log10 fold change) Score” value amounted to 0.19.
Still for that read-out and setting: the same measure for `O=C(Nc1ccc([N+](=O)[O-])cc1Cl)c1cc(Cl)ccc1O` [Niclosamide]: 0.15; for `O=C(N/N=C/c1ccc([N+](=O)[O-])o1)c1ccc(O)cc1` [Nifuroxazide]: 0.34.
Same read-out and setting: under `COc1ccc(Cc2nccc3cc(OC)c(OC)cc23)cc1OC` [Papaverine hydrochloride] stands 0.30; under `CCCCc1ccc2[nH]c(NC(=O)OC)nc2c1` [Parbendazole], −0.24.
Same read-out and setting: the same measure for `N=C(N)c1ccc(OCCCCCOc2ccc(C(=N)N)cc2)cc1` [Pentamidine isethionate]: 0.24; for `O=c1[nH]c2ccccc2n1C1CCN(CCCC(c2ccc(F)cc2)c2ccc(F)cc2)CC1` [Pimozide]: 0.18.
Take `COc1cc([C@@H]2c3cc4c(cc3[C@H](O)[C@H]3COC(=O)[C@H]23)OCO4)cc(OC)c1OC` [Podophyllotoxin]: the “Sglu/gal (log10 fold change) Score” value is listed as −0.27.
Same read-out and setting: the same measure for `COc1cc(C(=O)O)c2c(c1C)OC(=O)c1c(C)cc(O)c(C=O)c1O2` [Psoromic acid]: 0.35; for `COc1cc2c(cc1OC)[C@@H]1C(=O)c3ccc(OC)c(CC=C(C)C)c3O[C@@H]1CO2` [Rotenonic acid, methyl ether]: 0.34.
Still for that read-out and setting: the same measure for `COc1cc2c(cc1OC)[C@@H]1C(=O)c3ccc(O)c(CC=C(C)C)c3O[C@@H]1CO2` [Rotenonic acid]: 0.33.
Same read-out and setting: the same measure for `Clc1ccc(C(Cn2ccnc2)OCc2csc3c(Cl)cccc23)c(Cl)c1` (stereo not shown) [Sertaconazole nitrate]: 0.19; for `CN[C@H]1CC[C@@H](c2ccc(Cl)c(Cl)c2)c2ccccc21` [Sertraline hydrochloride]: 0.15.
Take `CCCCCCCCCCCCCCCC[N+](C)(C)CCN(Cc1ccc(OC)cc1)c1ncccn1` [Thonzonium bromide]: the “Sglu/gal (log10 fold change) Score” value came to 0.38.
On to `CC(C)c1c(O)ccc2c1CCC1C(C)(C(=O)O)CCCC21C` (stereo not shown) [Totarol-19-carboxylic acid], for which the “Sglu/gal (log10 fold change) Score” value is 0.80.
Same read-out and setting: the same measure for `O=c1[nH]c(=O)n([C@H]2C[C@H](O)[C@@H](CO)O2)cc1C(F)(F)F` [Trifluridine]: −0.26; for `CCOC(=O)C1=C[C@]2(CC)CCCN3CCc4c(n1c1ccccc41)[C@@H]32` [Vinpocetine]: 0.23.
Same read-out and setting: the same measure for `C[n+]1c2cc(N)ccc2cc2ccc(N)cc21.[Cl-]` [acriflavinium hydrochloride]: −0.29; for `CCCCCCc1ccc(O)cc1O.Nc1c2ccccc2nc2ccccc12` [acrisorcin]: −0.36.
On the same count and under the same terms, the same measure for `CC[C@@]1(O)C[C@H](O[C@H]2C[C@H](N(C)C)[C@H](O)[C@H](C)O2)c2c(cc3c(c2O)C(=O)c2c(O)cccc2C3=O)[C@H]1C(=O)OC` [aklavine hydrochloride]: −0.33; for `Nc1c2ccccc2nc2ccccc12` [aminacrine]: −0.29.
As to `C=C1CC[C@@H]2[C@](C)(CO)[C@H](O)CC[C@@]2(C)[C@@H]1C/C=C1/C(=O)OC[C@H]1O` [andrographolide], the “Sglu/gal (log10 fold change) Score” value is recorded as −0.46.

Staying with this test, now noted: approximately 10 μM compound, 72 hours; log10 fold change of normalized cell number in glucose versus galactose; listed as Methylbenzethonium chloride.
Turning to `Cc1cc(C(C)(C)CC(C)(C)C)ccc1OCCOCC[N+](C)(C)Cc1ccccc1.[Cl-]` [Methyl benzethonium chloride], the “Sglu/gal (log10 fold change) Score” value is 0.46.

The test is the same for the next values; noted with them: galactose versus glucose.
Consider `CN(C)CCC=C1c2ccccc2CCc2ccccc21` [amitriptyline], for which the “inhibitory activity against cell growth in galactose (SAR analysis)” value is “moderate inhibitory activity”.
